Values joined by “and” are separate entries in the source; they are usually repeats but may differ in a detail not shown here. Equal values may be shown once. Read-outs that look alike come from different tables or passages of the source.
How the values were obtained:
Test in all cases: Greenhouse test, pre-emergence treatment
SORHA = assay type: in vivo, Sorghum halepense; details: Sorghum halepense, pre-emergence, 480 h, 20 DAT, read-out: observed % activity
EPHHL = assay type: in vivo, Euphorbia heterophylla; details: Euphorbia heterophylla, pre-emergence, 480 h, pre-emergence, 1000 g ai/ha; read-out: observed % activity 20 DAT
Outline: (§1)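 Seeds were sown in loamy sand with about 3.0% humus, and compounds in water were sprayed immediately after sowing, alone or as combinations formulated as 10% emulsion concentrates. Plants grew under hoods until rooted, at 10-25 °C or 20-35 °C by species, for 2 to 4 weeks. Damage was scored 0-100 (100 = no emergence or complete destruction), and Colby expected values were E=X+Y−(X·Y/100).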

LOLMU = assay type: in vivo, Lolium multiflorum; details: Lolium multiflorum, pre-emergence, 480 h, pre-emergence, read-out: observed % activity 20 DAT
Outline: as §1

POLCO = assay type: in vivo, Polygonum convolvulus; details: pre-emergence
Outline: as §1

ELEIN = assay type: in vivo, Eleusine indica; details: 500 g ai/ha
Excerpt: The culture containers used were plastic flowerpots containing loamy sand with approximately 3.0% of humus as the substrate. The seeds of the test plants were sown separately for each species.
For the pre-emergence treatment, the active ingredients, which had been suspended or emulsified in water, were applied directly after sowing by means of finely distributing nozzles. The containers were irrigated gently to promote germination and growth and subsequently covered with transparent plastic hoods until the plants had rooted. This cover caused uniform germination of the test plants, unless this had been impaired by the active ingredients.
Depending on the species, the plants were kept at 10-25° C. or 20-35° C., respectively.
The test period extended over 2 to 4 weeks. During this time, the plants were tended, and their response to the individual treatments was evaluated.
Evaluation was carried out using a scale from 0 to 100. 100 means no emergence of the plants, or complete destruction of at least the aerial moieties, and 0 means no damage, or normal course of growth. A moderate herbicidal activity is given at values of at least 60, a good herbicidal activity is given at values of at least 70, and a very good herbicidal activity is given at values of at least 85.
The respective stated components a and b, and if appropriate, c were formulated as a 10% by weight strength emulsion concentrate and, with addition of the amount of solvent system, introduced into the spray liquor used for applying the active compound.
In the examples, the solvent used was water.
In the examples below, using the method of S. R. Colby (1967) “Calculating synergistic and antagonistic responses of herbicide combinations”, Weeds 15, p. 22ff., the value E, which is expected if the activity of the individual active compounds is only additive, was calculated. E=X+Y−(X·Y/100) where • X=percent activity using active compound a at an application rate A; • Y=percent activity using active compound b at an application rate B; • E=expected activity (in %) by a+b at application rates A+B.
If the value found experimentally is higher than the value E calculated according to Colby, a synergistic effect is present.

PHACA = assay type: in vivo, Phalaris canariensis; details: Phalaris canariensis, pre-emergence, 480 h, pre-emergence, read-out: observed % activity 20 DAT
Outline: as §1

ECHCG = assay type: in vivo, Echinocloa crus-galli; details: Echinochloa crus-galli, 480 h, read-out: observed % activity 20 DAT
Outline: as §1

ALOMY = assay type: in vivo, Alopecurus myosuroides; details: pre-emergence
Outline: as §1

SETFA = assay type: in vivo, Setaria faberi
Outline: as §1

GERPU = assay type: in vivo, Geranium pusillum; details: Geranium pusillum, pre-emergence, 480 h, pre-emergence, read-out: observed % activity 20 DAT
Outline: as §1

GALAP = assay type: in vivo, Galium aparine; details: Galium aparine, pre-emergence, 480 h, 500 g ai/ha, 20 DAT; read-out: observed % activity
Outline: as §1

KCHSC = assay type: in vivo, Kochia scoparia; details: Bassia scoparia, 480 h, pre-emergence, read-out: observed % activity 20 DAT
Outline: as §1

COMBE = assay type: in vivo, Commelina benghalensis; details: Commelina benghalensis, 480 h, pre-emergence, read-out: observed % activity 20 DAT
Outline: as §1

AVEFA = assay type: in vivo, Avena fatua; details: pre-emergence
Outline: as §1

BRADC = assay type: in vivo, Brachiaria decumbens; details: Urochloa decumbens, pre-emergence, 480 h
Outline: as §1

With `CCC(CC)Nc1c([N+](=O)[O-])cc(C)c(C)c1[N+](=O)[O-]` [Pendimethalin, pendimethalin] the inhibition at 250 g/ha (SORHA; 250 g ai/ha) was 75%, the inhibition at 500 g/ha (SORHA; 500 g ai/ha) was 85% and the pest or weed control at 1000 g/ha (EPHHL) was 55%. It also gave an inhibition at 125 g/ha (LOLMU; use rate 125 g ai/ha) of 0%, an inhibition at 250 g/ha (LOLMU; use rate 250 g ai/ha) of 0% and a pest or weed control at 1000 g/ha (LOLMU; use rate 1000 g ai/ha, 20 DAT) of 55%. The inhibition at 1000 g/ha (LOLMU; use rate 1000 g ai/ha) was 55%, the pest or weed control at 500 g/ha (POLCO; Fallopia convolvulus, 480 h, use rate 500 g ai/ha, 20 DAT, read-out: observed % activity 20 DAT) was 60% and the inhibition at 250 g/ha (POLCO; Fallopia convolvulus, 480 h, 250 g ai/ha, 20 DAT, read-out: observed % activity) was 50%. It also gave an inhibition at 500 g/ha (POLCO; Fallopia convolvulus, 480 h, 500 g ai/ha, 20 DAT, read-out: observed % activity) of 60%, an inhibition at 125 g/ha (POLCO; Fallopia convolvulus, 480 h, use rate 125 g ai/ha, read-out: observed % activity 20 DAT) of 0% and an inhibition at 500 g/ha (POLCO; Fallopia convolvulus, 480 h, use rate 500 g ai/ha, read-out: observed % activity 20 DAT) of 60%. For the same compound, the “observed % activity 20 DAT” value (POLCO; use rate 500 g ai/ha) was 45%, the “observed % activity 20 DAT” value (ELEIN) was 100% and the pest or weed control at 250 g/ha (PHACA; 250 g ai/ha) was 0%. The pest or weed control at 500 g/ha (PHACA; 500 g ai/ha) was 45%, the inhibition at 125 g/ha (PHACA; use rate 125 g ai/ha) was 35% and the pest or weed control at 250 g/ha (PHACA; use rate 250 g ai/ha, 20 DAT) was 55%. The inhibition at 250 g/ha (PHACA; use rate 250 g ai/ha) was 55%, the inhibition at 500 g/ha (PHACA; use rate 500 g ai/ha) was 65% and the inhibition at 125 g/ha (ECHCG; use rate 125 g ai/ha) was 95%. It also gave a pest or weed control at 250 g/ha (ECHCG; use rate 250 g ai/ha, 20 DAT) of 98%, an inhibition at 250 g/ha (ECHCG; use rate 250 g ai/ha) of 98% and an inhibition at 250 g/ha (ALOMY; Alopecurus myosuroides, 480 h, 250 g ai/ha, 20 DAT, read-out: observed % activity) of 60%. The inhibition at 500 g/ha (ALOMY; Alopecurus myosuroides, 480 h, 500 g ai/ha, 20 DAT, read-out: observed % activity) was 85%, the pest or weed control at 250 g/ha (ALOMY; Alopecurus myosuroides, 480 h, 250 g ai/ha, read-out: observed % activity 20 DAT) was 45% and the pest or weed control at 500 g/ha (ALOMY; Alopecurus myosuroides, 480 h, 500 g ai/ha, read-out: observed % activity 20 DAT) was 65%. The pest or weed control at 1000 g/ha (ALOMY; Alopecurus myosuroides, 480 h, 1000 g ai/ha, read-out: observed % activity 20 DAT) was 80%, the inhibition at 125 g/ha (ALOMY; Alopecurus myosuroides, 480 h, use rate 125 g ai/ha, read-out: observed % activity 20 DAT) was 55% and the pest or weed control at 250 g/ha (ALOMY; Alopecurus myosuroides, 480 h, use rate 250 g ai/ha, 20 DAT, read-out: observed % activity 20 DAT) was 15%. For the same compound, the pest or weed control at 1000 g/ha (ALOMY; Alopecurus myosuroides, 480 h, use rate 1000 g ai/ha, 20 DAT, read-out: observed % activity 20 DAT) was 95%, the inhibition at 1000 g/ha (ALOMY; Alopecurus myosuroides, 480 h, use rate 1000 g ai/ha, read-out: observed % activity 20 DAT) was 95% and the “observed % activity 20 DAT” value (ALOMY; use rate 500 g ai/ha) was 65% and 90%. For the same compound, the “observed % activity 20 DAT” value (ALOMY; use rate 1000 g ai/ha) was 75%, the inhibition at 125 g/ha (SETFA; Setaria faberi, 480 h, use rate 125 g ai/ha, read-out: observed % activity 20 DAT) was 98% and the inhibition at 500 g/ha (SETFA; Setaria faberi, 480 h, use rate 500 g ai/ha, read-out: observed % activity 20 DAT) was 98%. The “observed % activity 20 DAT” value (SETFA; use rate 500 g ai/ha, 20 DAT) was 98%, the pest or weed control at 125 g/ha (GERPU; use rate 125 g ai/ha, 20 DAT) was 90% and the inhibition at 125 g/ha (GERPU; use rate 125 g ai/ha) was 70%. The inhibition at 250 g/ha (GERPU; use rate 250 g ai/ha) was 90%, the pest or weed control at 500 g/ha (GERPU; use rate 500 g ai/ha, 20 DAT) was 70% and the inhibition at 500 g/ha (GALAP) was 30%. The pest or weed control at 500 g/ha (KCHSC; use rate 500 g ai/ha, 20 DAT) was 80%, the inhibition at 125 g/ha (KCHSC; use rate 125 g ai/ha) was 60% and the pest or weed control at 500 g/ha (COMBE; 500 g ai/ha) was 10%. For the same compound, the pest or weed control at 1000 g/ha (COMBE; 1000 g ai/ha) was 40%, the inhibition at 500 g/ha (AVEFA; Avena fatua, 480 h, 500 g ai/ha, 20 DAT, read-out: observed % activity) was 0% and the “observed % activity 20 DAT” value (AVEFA; 250 g ai/ha) was 0%. The inhibition at 500 g/ha (BRADC; 500 g ai/ha, 20 DAT, read-out: observed % activity) was 75%, the pest or weed control at 250 g/ha (BRADC; 250 g ai/ha, read-out: observed % activity 20 DAT) was 35% and the pest or weed control at 500 g/ha (BRADC; 500 g ai/ha, read-out: observed % activity 20 DAT) was 55%.
